# Experimental data as given in US20070128217A1 (priority 2003, published 2007).
# What was measured:
# [1] = system: rabbit serum obtained by immunizing a rabbit with the SARS-CoV strain Frankfurt 1; assay type: binding; set-up: Binding of a rabbit serum to linear peptides / Binding of a rabbit serum to looped peptides / Rabbit serum linear peptides / Rabbit serum looped peptides / Binding of a rabbit serum to linear peptides of protein N of SARS-CoV Urbani (Rabbit serum linear peptides) / Binding of a rabbit serum to looped/cyclic peptides of protein N of SARS-CoV Urbani (Rabbit serum looped peptides): unit not given here
# [2] = system: antibodies in sera from SARS patients (sera 1a, 1b, 2, 6, 37, 62, London, SARS-yellow, SARS-green); assay type: binding, human; set-up: Binding of serum 6 to linear peptides of protein X1 of SARS-CoV Urbani / Binding of serum 37 to linear peptides of protein X1 of SARS-CoV Urbani / Binding of serum 6 to looped/cyclic peptide (PEPSCAN-ELISA) / Binding of serum 37 to looped/cyclic peptide (PEPSCAN-ELISA) / Binding of serum 37 to looped/cyclic peptides of protein X1 of SARS-CoV Urbani / Binding of serum 6 to linear peptides of protein X2 / Binding of serum 37 to linear peptides of protein X2 / Binding of serum 37 to looped/cyclic peptides of protein X2 of SARS-CoV Urbani / Binding of serum 6 to linear peptides of protein M of SARS-CoV Urbani / Binding of serum 37 to linear peptides of protein M of SARS-CoV Urbani / Binding of serum 6 to looped/cyclic peptides of protein M of SARS-CoV Urbani / Binding of serum 37 to looped/cyclic peptides of protein M of SARS-CoV Urbani / Binding of serum 6 to linear peptides of protein X3 of SARS-CoV Urbani / Binding of serum 37 to linear peptides of protein X3 of SARS-CoV Urbani / Binding of serum 37 to looped/cyclic peptides of protein X3 of SARS-CoV Urbani / Binding of serum 6 to linear peptides of protein X4 of SARS-CoV Urbani / Binding of serum 37 to linear peptides of protein X4 of SARS-CoV Urbani / Binding of serum 37 to looped/cyclic peptides of protein X4 of SARS-CoV Urbani / Binding of serum 6 to linear peptides of protein X5 of SARS-CoV Urbani / Binding of serum 37 to linear peptides of protein X5 of SARS-CoV Urbani / Binding of serum 37 to looped/cyclic peptides of protein X5 of SARS-CoV Urbani / Binding of serum 6 to linear peptides of protein N of SARS-CoV Urbani / Binding of serum 37 to linear peptides of protein N of SARS-CoV Urbani / Binding of serum 6 to linear peptide (PEPSCAN-ELISA) / Binding of serum 1a to looped/cyclic peptides of protein N of SARS-CoV Urbani / Binding of serum 1b to looped/cyclic peptides of protein N of SARS-CoV Urbani / Binding of serum 2 to looped/cyclic peptides of protein N of SARS-CoV Urbani / Binding of serum 6 to looped/cyclic peptides of protein N of SARS-CoV Urbani / Binding of serum 37 to looped/cyclic peptides of protein N of SARS-CoV Urbani / Binding of serum 62 to looped/cyclic peptides of protein N of SARS-CoV Urbani / Binding of serum London to looped/cyclic peptides of protein N of SARS-CoV Urbani / Binding of serum SARS-green to looped/cyclic peptides of protein N of SARS-CoV Urbani: unit not given here
Sequence,Binding of a rabbit serum to linear peptides [1],Binding of a rabbit serum to looped peptides [1],Binding of serum 1a to linear peptides of protein X1 of SARS-CoV Urbani [2],Binding of serum 1a to looped/cyclic peptide (PEPSCAN-ELISA) [2],Binding of serum 1b to linear peptides of protein X1 of SARS-CoV Urbani [2],Binding of serum 1b to looped/cyclic peptide (PEPSCAN-ELISA) [2],Binding of serum 2 to linear peptides of protein X1 of SARS-CoV Urbani [2],Binding of serum 2 to looped/cyclic peptide (PEPSCAN-ELISA) [2],Binding of serum 6 to linear peptides of protein X1 of SARS-CoV Urbani [2],Binding of serum 6 to looped/cyclic peptide (PEPSCAN-ELISA) [2],Binding of serum 37 to linear peptides of protein X1 of SARS-CoV Urbani [2],Binding of serum 37 to looped/cyclic peptide (PEPSCAN-ELISA) [2],Binding of serum 62 to linear peptides of protein X1 of SARS-CoV Urbani [2],Binding of serum 62 to looped/cyclic peptide (PEPSCAN-ELISA) [2],Binding of serum London to linear peptides of protein X1 of SARS-CoV Urbani [2],Binding of serum London to looped/cyclic peptide (PEPSCAN-ELISA) [2],Binding of serum SARS-green to linear peptides of protein X1 of SARS-CoV Urbani [2],Binding of serum SARS-green to looped/cyclic peptide (PEPSCAN-ELISA) [2],Binding of serum SARS-yellow to linear peptides of protein X1 of SARS-CoV Urbani [2],Binding of serum SARS-yellow to looped/cyclic peptide (PEPSCAN-ELISA) [2],other results
FICNLLLLFVTIYSH,0.1,0.5,0.6,0.5,0.6,0.3,0.6,0.4,0.4,0.2,0.5,0.5,0.5,0.5,0.3,0.2,0.2,0.3,0.4,0.5,
LACFVLAAVYRINWV,,,,,,,,,,,,,,,,,,,,,Rabbit serum linear peptides [1]: 0.3; Rabbit serum looped peptides [1]: 0.2; Binding of serum 1a to linear peptides of protein M of SARS-CoV Urbani [2]: 0.7; Binding of serum 1a to looped/cyclic peptides of protein M of SARS-CoV Urbani [2]: 0.7; Binding of serum 1b to linear peptides of protein M of SARS-CoV Urbani [2]: 0.7; Binding of serum 1b to looped/cyclic peptides of protein M of SARS-CoV Urbani [2]: 0.5; Binding of serum 2 to linear peptides of protein M of SARS-CoV Urbani [2]: 0.6; Binding of serum 2 to looped/cyclic peptides of protein M of SARS-CoV Urbani [2]: 0.9; Binding of serum 6 to linear peptides of protein M of SARS-CoV Urbani [2]: 0.4; Binding of serum 6 to looped/cyclic peptides of protein M of SARS-CoV Urbani [2]: 0.7; Binding of serum 37 to linear peptides of protein M of SARS-CoV Urbani [2]: 0.5; Binding of serum 37 to looped/cyclic peptides of protein M of SARS-CoV Urbani [2]: 0.6; Binding of serum 62 to linear peptides of protein M of SARS-CoV Urbani [2]: 0.5; Binding of serum 62 to looped/cyclic peptides of protein M of SARS-CoV Urbani [2]: 0.7; Binding of serum London to linear peptides of protein M of SARS-CoV Urbani [2]: 0.4; Binding of serum London to looped/cyclic peptides of protein M of SARS-CoV Urbani [2]: 0.3; Binding of serum SARS-green to linear peptides of protein M of SARS-CoV Urbani [2]: 0.6; Binding of serum SARS-green to looped/cyclic peptides of protein M of SARS-CoV Urbani [2]: 0.3; Binding of serum SARS-yellow to linear peptides of protein M of SARS-CoV Urbani [2]: 0.3; Binding of serum SARS-yellow to looped/cyclic peptides of protein M of SARS-CoV Urbani [2]: 0.4
LLIQQWIQFMMSRRR,0.5,0.6,,,,,,,,,,,,,,,,,,,Binding of serum 1a to linear peptides of protein X2 [2]: 0.7; Binding of serum 1a to looped/cyclic peptides of protein X2 of SARS-CoV Urbani [2]: 0.5; Binding of serum 1b to linear peptides of protein X2 [2]: 0.5; Binding of serum 1b to looped/cyclic peptides of protein X2 of SARS-CoV Urbani [2]: 0.5; Binding of serum 2 to linear peptides of protein X2 [2]: 0.5; Binding of serum 2 to looped/cyclic peptides of protein X2 of SARS-CoV Urbani [2]: 0.7; Binding of serum 6 to linear peptides of protein X2 [2]: 0.5; Binding of serum 6 to looped/cyclic peptides of protein X2 of SARS-CoV Urbani [2]: 0.3; Binding of serum 37 to linear peptides of protein X2 [2]: 0.6; Binding of serum 37 to looped/cyclic peptides of protein X2 of SARS-CoV Urbani [2]: 0.5; Binding of serum 62 to linear peptides of protein X2 [2]: 0.6; Binding of serum 62 to looped/cyclic peptides of protein X2 of SARS-CoV Urbani [2]: 0.7; Binding of serum London to linear peptides of protein X2 [2]: 0.4; Binding of serum London to looped/cyclic peptides of protein X2 of SARS-CoV Urbani [2]: 0.2; Binding of serum SARS-green to linear peptides of protein X2 [2]: 0.5; Binding of serum SARS-green to looped/cyclic peptides of protein X2 of SARS-CoV Urbani [2]: 0.3; Binding of serum SARS-yellow to linear peptides of protein X2 [2]: 0.8; Binding of serum SARS-yellow to looped/cyclic peptides of protein X2 of SARS-CoV Urbani [2]: 0.4
IIALNKRWQLALYKG,,,0.7,0.6,0.4,0.4,0.5,0.5,0.7,0.6,0.6,0.6,0.5,0.6,0.3,0.4,0.3,0.2,0.5,0.5,Recognition of the peptide by the rabbit serum [1]: recognized
TTVYHITVSQIQLSL,0.7,0.4,,,,,,,,,,,,,,,,,,,Binding of serum 1a to linear peptides of protein X2 [2]: 0.7; Binding of serum 1a to looped/cyclic peptides of protein X2 of SARS-CoV Urbani [2]: 0.5; Binding of serum 1b to linear peptides of protein X2 [2]: 0.5; Binding of serum 1b to looped/cyclic peptides of protein X2 of SARS-CoV Urbani [2]: 0.5; Binding of serum 2 to linear peptides of protein X2 [2]: 0.5; Binding of serum 2 to looped/cyclic peptides of protein X2 of SARS-CoV Urbani [2]: 0.3; Binding of serum 6 to linear peptides of protein X2 [2]: 0.5; Binding of serum 6 to looped/cyclic peptides of protein X2 of SARS-CoV Urbani [2]: 0.3; Binding of serum 37 to linear peptides of protein X2 [2]: 0.7; Binding of serum 37 to looped/cyclic peptides of protein X2 of SARS-CoV Urbani [2]: 0.4; Binding of serum 62 to linear peptides of protein X2 [2]: 0.6; Binding of serum 62 to looped/cyclic peptides of protein X2 of SARS-CoV Urbani [2]: 0.5; Binding of serum London to linear peptides of protein X2 [2]: 0.4; Binding of serum London to looped/cyclic peptides of protein X2 of SARS-CoV Urbani [2]: 0.2; Binding of serum SARS-green to linear peptides of protein X2 [2]: 0.1; Binding of serum SARS-green to looped/cyclic peptides of protein X2 of SARS-CoV Urbani [2]: 0.2; Binding of serum SARS-yellow to linear peptides of protein X2 [2]: 0.8; Binding of serum SARS-yellow to looped/cyclic peptides of protein X2 of SARS-CoV Urbani [2]: 0.4
TKIIALNKRWQLALY,,,0.7,0.6,0.5,0.4,0.6,0.5,1.0,0.5,0.7,0.6,0.7,0.6,0.3,0.3,0.2,0.3,0.5,0.5,Recognition of the peptide by the rabbit serum [1]: recognized
